Measured values: patent US7504384B2 (priority 2000, dated 2009)

Columns and labels:
[1] = tested on: TNFα production by BAL macrophages; assay: TNFα production by macrophages from BAL of OVA-sensitized asthmatic rats; conditions: compared with Naive and Dx-treated rats; p<0.001 vs Asthmatic
[2] = tested on: Influenza A (H1N1 strain) virus; assay type: cell-based, Influenza type A, A/New Caledonia/20/99 (H1N1); conditions: high concentration, Neutral Red Uptake Assay
[3] = tested on: Guinea pig tracheal rings; assay: Inhibition of tracheal ring contraction; conditions: stimulant Histamine (20 μM); Lipid-conjugate 15 μM
Protocol: A muscle preparation (tracheal rings) was isolated from rats (Experiments 3.1-3.3) and from guinea pigs (Experiments 3.4-3.5). Muscle contraction was measured by attachment of the muscle to a pressure transducer, which works much like a spring. Administration of asthmatogenic substances such as endothelin-1 (ET) and acetylcholine (AcCh) induces muscle contraction. Endothelins are released upon vascular endothelial injury, and they activate macrophages and act as strong chemo-attractants for circulating monocytes. Endothelins affect vascular smooth muscle fibroblast proliferation; help regulate vascular, airway, and intestinal smooth muscle tone; increase the activity of bone alkaline phosphatase; stimulate release of atrial natriuretic peptide (ANP) from atrial cardiocytes; inhibit the release of renin from glomeruli and modulate norepinephrine at sympathetic nerve termini. Opposing vasomotor effects are regulated through the binding of distinct endothelin receptors for vasoconstriction and vasodilation. Endothelins have been linked to atherosclerosis and various cardiovascular disease states. ET-1 is important in congestive heart failure, renal failure, pulmonary hypertension, hyperlipidemia and metastatic prostate cancer. On the other hand, AcCh is one of the three main receptors on the bronchi of the lungs, which are basically tubes with muscular walls. Stimulation of bronchial AcCh receptor induces muscle contraction and decreased airflow through the bronchi. Thus, ET and AcCh were used to experimentally induce muscle contraction in the lungs as a model of obstructive respiratory disorders.
Experiment 3.4: Guinea pig tracheal rings (in a linear array), immersed in a ringer bath, were connected to an apparatus measuring the length of the ring chain. […] Human airways have both Histamine (H)-1 and H2 receptors. H1 receptors, which mediate bronchoconstriction, predominate. Histamine application in experimental models produces signs and symptoms of asthma, such as narrowing of the airways, mucus secretion, wheezing, and coughing.

Substance | TNFα production, BAL macrophages [1] | EC50 [2] [µg/mL] | % Inhibition of tracheal ring contraction [3] [%]
dipalmitoyl-PE conjugated to HA [Compound XXII] | no significant differences |  | 
dipalmitoyl-phosphatidyl-ethanolamine conjugated to heparin [Compound XXIV] |  | 1000 | 56 ± 0.05
